# Data published in US6479435B1, “Diaryl ethers and processes for their preparation and herbicidal and desiccant compositions containing them” (ISK Americas Incorporated, priority 1997, dated 2002).
# Tests used:
# Assay type in all cases: in vivo
# [1] = test system: Johnsongrass (Sorghum halepense, SORHA); assay: Pre-emerge greenhouse herbicide test, phytotoxicity rating; conditions: Sorghum halepense, pre-emergence, 336 h, 14 days after application, rating scale 0-100; for pest or weed control at 125 g/ha: Rate 125 g al/ha; for pest or weed control at 500 g/ha: Rate 500 g al/ha
# Method in brief: (§1)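 Seeds sown in sandy loam one day before track-sprayer application of acetone solutions at 125–1000 g ai/ha (187 l/ha), then surface-watered to incorporate and bottom-watered. Injury scored visually at 14 days on a 0–100 scale (0 no damage, 100 complete death).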
# [2] = test system: barnyardgrass (Echinochloa crusgalli, ECHCG); assay: as above; conditions: Echinochloa crus-galli, pre-emergence, 336 h, 14 days after application, rating scale 0-100; for pest or weed control at 125 g/ha: Rate 125 g al/ha; for pest or weed control at 500 g/ha: Rate 500 g al/ha
# Method in brief: as §1
# [3] = test system: green foxtail (Setaria viridis, SETVI); assay: as above; conditions: Setaria viridis, pre-emergence, 336 h, 14 days after application, rating scale 0-100; for pest or weed control at 125 g/ha: Rate 125 g al/ha; for pest or weed control at 500 g/ha: Rate 500 g al/ha
# Method in brief: as §1
# [4] = test system: ivyleaf morningglory (Ipomoea hederacea, IPOHE); assay: as above; conditions: Ipomoea, pre-emergence, 336 h, 14 days after application, rating scale 0-100; for pest or weed control at 125 g/ha: Rate 125 g al/ha; for pest or weed control at 500 g/ha: Rate 500 g al/ha
# Method in brief: as §1
# [5] = test system: lambsquarters (Chenopodium album, CHEAL); assay: as above; conditions: Chenopodium album, pre-emergence, 336 h, 14 days after application, rating scale 0-100; for pest or weed control at 125 g/ha: Rate 125 g al/ha; for pest or weed control at 500 g/ha: Rate 500 g al/ha
# Method in brief: as §1
# [6] = test system: large crabgrass (Digitaria sanguinalis, DIGSA); assay: as above; conditions: Digitaria sanguinalis, pre-emergence, 336 h, 14 days after application, rating scale 0-100; for pest or weed control at 125 g/ha: Rate 125 g al/ha; for pest or weed control at 500 g/ha: Rate 500 g al/ha
# Method in brief: as §1
# [7] = test system: redroot pigweed (Amaranthus retroflexus, AMARE); assay: as above; conditions: Amaranthus retroflexus, pre-emergence, 336 h, 14 days after application, rating scale 0-100; for pest or weed control at 125 g/ha: Rate 125 g al/ha; for pest or weed control at 500 g/ha: Rate 500 g al/ha
# Method in brief: as §1
# [8] = test system: sicklepod (Cassia obtusifolia, CASOB); assay: as above; conditions: Senna obtusifolia, pre-emergence, 336 h, 14 days after application, rating scale 0-100; for pest or weed control at 125 g/ha: Rate 125 g al/ha; for pest or weed control at 500 g/ha: Rate 500 g al/ha
# Method in brief: as §1
# [9] = test system: velvetleaf (Abutilon theophrasti, ABUTH); assay: as above; conditions: Abutilon theophrasti, pre-emergence, 336 h, 14 days after application, rating scale 0-100; for pest or weed control at 125 g/ha: Rate 125 g al/ha; for pest or weed control at 500 g/ha: Rate 500 g al/ha
# Method in brief: as §1
# [10] = test system: Johnsongrass (Sorghum halepense, SORHA); assay: Post-emerge greenhouse herbicide test, phytotoxicity rating; conditions: Sorghum halepense, post-emergence, 336 h, 14 days after application, scale 0-100; for pest or weed control at 63 g/ha: rate 63 g ai/ha; for pest or weed control at 500 g/ha: rate 500 g ai/ha
# Method in brief: (§2)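 Plants at the 2-3 leaf stage, sown 8-21 days earlier, were track-sprayed post-emergence with compound in acetone plus 0.25% v/v non-ionic surfactant at 63-1000 g ai/ha (187 l/ha). Damage was rated at 14 days on a 0-100 scale (0 none, 100 all plants dead), for both crop injury and weed control.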
# [11] = test system: green foxtail (Setaria viridis, SETVI); assay: as above; conditions: Setaria viridis, post-emergence, 336 h, 14 days after application, scale 0-100; for pest or weed control at 63 g/ha: rate 63 g ai/ha; for pest or weed control at 500 g/ha: rate 500 g ai/ha
# Method in brief: as §2
# [12] = test system: lambsquarters (Chenopodium album, CHEAL); assay: as above; conditions: Chenopodium album, post-emergence, 336 h, 14 days after application, scale 0-100; for pest or weed control at 63 g/ha: rate 63 g ai/ha; for pest or weed control at 500 g/ha: rate 500 g ai/ha
# Method in brief: as §2
# [13] = test system: large crabgrass (Digitaria sanguinalis, DIGSA); assay: as above; conditions: Digitaria sanguinalis, post-emergence, 336 h, 14 days after application, scale 0-100; for pest or weed control at 63 g/ha: rate 63 g ai/ha; for pest or weed control at 500 g/ha: rate 500 g ai/ha
# Method in brief: as §2
# [14] = test system: redroot pigweed (Amaranthus retroflexus, AMARE); assay: as above; conditions: Amaranthus retroflexus, post-emergence, 336 h, 14 days after application, scale 0-100; for pest or weed control at 63 g/ha: rate 63 g ai/ha; for pest or weed control at 500 g/ha: rate 500 g ai/ha
# Method in brief: as §2
# [15] = test system: sicklepod (Cassia obtusifolia, CASOB); assay: as above; conditions: Senna obtusifolia, post-emergence, 336 h, 14 days after application, scale 0-100; for pest or weed control at 63 g/ha: rate 63 g ai/ha; for pest or weed control at 500 g/ha: rate 500 g ai/ha
# Method in brief: as §2
Structure (SMILES),pest or weed control at 125 g/ha [1],pest or weed control at 500 g/ha [1],pest or weed control at 125 g/ha [2],pest or weed control at 500 g/ha [2],pest or weed control at 125 g/ha [3],pest or weed control at 500 g/ha [3],pest or weed control at 125 g/ha [4],pest or weed control at 500 g/ha [4],pest or weed control at 125 g/ha [5],pest or weed control at 500 g/ha [5],pest or weed control at 125 g/ha [6],pest or weed control at 500 g/ha [6],pest or weed control at 125 g/ha [7],pest or weed control at 500 g/ha [7],pest or weed control at 125 g/ha [8],pest or weed control at 500 g/ha [8],pest or weed control at 125 g/ha [9],pest or weed control at 500 g/ha [9],pest or weed control at 63 g/ha [10],pest or weed control at 500 g/ha [10],other results
"O=c1n(-c2cc(Oc3ncccc3C(F)(F)F)c(Cl)cc2F)c(=S)n2n1CCCC2 [Compound 8-18, 2-[4-chloro-2-fluoro-5-(3-trifluoromethyl-2pyridyloxy)phenyl]hexahydro-3-thioxo-1H-[1,2,4]triazolo[1,2-a]pyridazin-1-one]",40%,100%,40%,80%,95%,100%,20%,45%,100%,100%,50%,100%,100%,100%,20%,40%,100%,100%,50%,90%,pest or weed control at 63 g/ha [11]: 40%; pest or weed control at 500 g/ha [11]: 70%; pest or weed control at 63 g/ha [12]: 100%; pest or weed control at 500 g/ha [12]: 100%; pest or weed control at 63 g/ha [13]: 0%; pest or weed control at 500 g/ha [13]: 10%; pest or weed control at 63 g/ha [14]: 100%; pest or weed control at 500 g/ha [14]: 100%; pest or weed control at 63 g/ha [15]: 70%; pest or weed control at 500 g/ha [15]: 100%
"O=c1n(-c2cc(Oc3ncccn3)c(Cl)cc2F)c(=S)n2n1CCCC2 [Compound 8-29, 2-[4-chloro-2-fluoro-5-(2-pyrimidyloxy)phenyl]hexahydro-3-thioxo-1H-[1,2,4]triazolo[1,2-a]pyridazin-1-one]",100%,100%,100%,100%,100%,100%,100%,100%,100%,100%,100%,100%,100%,100%,100%,100%,100%,100%,90%,100%,pest or weed control at 63 g/ha [11]: 90%; pest or weed control at 500 g/ha [11]: 100%; pest or weed control at 63 g/ha [12]: 100%; pest or weed control at 500 g/ha [12]: 100%; pest or weed control at 63 g/ha [13]: 50%; pest or weed control at 500 g/ha [13]: 100%; pest or weed control at 63 g/ha [14]: 100%; pest or weed control at 500 g/ha [14]: 100%; pest or weed control at 63 g/ha [15]: 100%; pest or weed control at 500 g/ha [15]: 100%
"Nn1c(C(F)(F)F)cc(=O)n(-c2cc(Oc3ncccc3[N+](=O)[O-])c(Cl)cc2F)c1=O [Compound 9-1, 1-amino-3-[4-chloro-2-fluoro-5-(3-nitro-2-pyridyloxy)phenyl]-6-trifluoromethyl-1,2,3,4-tetrahydropyrimidine-2,4-dione]",95%,99%,95%,100%,99%,100%,100%,100%,100%,100%,40%,100%,100%,100%,30%,90%,100%,100%,70%,99%,pest or weed control at 63 g/ha [11]: 20%; pest or weed control at 500 g/ha [11]: 90%; pest or weed control at 63 g/ha [12]: 95%; pest or weed control at 500 g/ha [12]: 100%; pest or weed control at 63 g/ha [13]: 20%; pest or weed control at 500 g/ha [13]: 50%; pest or weed control at 63 g/ha [14]: 100%; pest or weed control at 500 g/ha [14]: 100%; pest or weed control at 63 g/ha [15]: 30%; pest or weed control at 500 g/ha [15]: 30%
"Nn1c(C(F)(F)F)cc(=O)n(-c2cc(Oc3ccc(Br)cn3)c(Cl)cc2F)c1=O [Compound 9-2, 1-Amino-3-[4-chloro-2-fluoro-5-(5-bromo-2-pyridyloxy)phenyl]-6-trifluoromethyl-1,2,3,4-tetrahydropyrimidine-2,4-dione]",60%,90%,20%,95%,80%,100%,0%,100%,100%,100%,95%,100%,80%,100%,0%,50%,30%,100%,10%,70%,pest or weed control at 63 g/ha [11]: 10%; pest or weed control at 500 g/ha [11]: 60%; pest or weed control at 63 g/ha [12]: 100%; pest or weed control at 500 g/ha [12]: 95%; pest or weed control at 63 g/ha [13]: 0%; pest or weed control at 500 g/ha [13]: 30%; pest or weed control at 63 g/ha [14]: 100%; pest or weed control at 500 g/ha [14]: 100%; pest or weed control at 63 g/ha [15]: 30%; pest or weed control at 500 g/ha [15]: 95%
